This assay relates to pancreas of RIP-DTr mice. The assay is described as follows: Total pancreas insulin content (acid-ethanol extraction, ELISA) after DT. Format: in vivo. The text has this:
Rat insulin promoter-diphtheria toxin receptor (RIP-DTr) mice were generated as reported. Briefly, the transgene containing an insulin promoter and the diphtheria toxin (DT) receptor coding sequence (RIP-DTr) was targeted to the Hprt locus of the X chromosome. Thus, in this model, DT administration leads to a parallel loss of insulin content and beta cells, which is partially due to the random X inactivation (on average 50%) in hemizygous female mice and nearly complete ablation in male mice.
To evaluate the total insulin content of the pancreas, whole glands were carefully dissected and extracted in acid-ethanol for 24 h, as reported. Pancreas insulin content was evaluated using a rodent insulin ELISA kit (Mercodia, Uppsala, Sweden) according to the manufacturer’s instructions.
Three-to-four-months-old male and female mice of the RIP-DTr strain [33, 36] were tested before and after DT administration. Mice were initially imaged before the injection of a probe to obtain a baseline T2 value (ESM Fig. 2). […] One week after this first imaging session, the same mice were given three intraperitoneal injections of 125 ng DT (injections administered on days 7, 9 and 11; ESM Fig. 2) and were monitored for non-fasting blood glucose by measuring tail-vein blood samples with a glucose meter. […]
(In general: An ELISA detects its analyte on a solid surface through an enzyme-linked reagent.)

With Diphtheria toxin [DT], where the note is “female RIP-DTr mice, up to 3 months after DT administration (3 × 125 ng i.p.)”, the “Pancreas insulin content after DT, female mice (average)” value is reported as 63 % of the control levels. Besides, the “Pancreas insulin content after DT, male mice” value (male RIP-DTr mice after DT administration (3 × 125 ng i.p.)) is given as 0.4 % of control levels.

For the origin of these results see paper PMC4287680, “Targeting GLP-1 receptors for repeated magnetic resonance imaging differentiates graded losses of pancreatic beta cells in mice” (Diabetologia, 2014).
